Assays:
[1] = system: Sprague-Dawley (SD) rats with loperamide-induced constipation; assay: Prevention of loperamide-induced constipation: number and weight of feces (Experimental Example 2); type: in vivo, rat
Procedure: Four-week-old male Sprague-Dawley (SD) rats were purchased from Damul Science (Daejeon, Korea) and bred at a temperature of 20±2° C. and a humidity of 55±5% on a 12 h light-dark cycle. The experimental animals were acclimated for 1 week after purchase and were divided into the experimental groups (5 animals per group) shown in Table 3.
All experimental groups other than the normal control (NOR) and the negative control (LOP) were administered orally the respective drugs (positive controls) or the respective fermented products of Preparative Example 4 for 5 days before loperamide administration.
The negative control (LOP), the positive controls (CON1, CON2), and all experimental groups other than the normal control (NOR) were administered subcutaneously loperamide for 5 days to induce constipation. The experimental animals were sacrificed on day 6 after initiation of the loperamide administration.

[2] = system: Sprague-Dawley (SD) rats with loperamide-induced constipation; assay: Colonic transits of carmine dye (Experimental Example 3); type: in vivo, rat; settings: 20 min after oral carmine dye
Procedure: At day 6, 3 mL of carmine dye at a concentration of 1.5% (w/v) in physiological saline was administered orally to the experimental animals. 20 min after the oral administration, the experimental animals were sacrificed. Thereafter, in each experimental animal, both ends of the site of the colon from the appendix to the rectum were ligated. The colon site was excised and washed with PBS. The colonic transits of the carmine dye were measured from FIG. 6.

Molecule	Number of feces ([1]; sennoside 50 mg/kg oral before loperamide 4 mg/kg s.c. 5 days (CON1))	Weight of feces ([1]; sennoside 50 mg/kg oral before loperamide (CON1), compared with CON2)	Colonic transit of the carmine dye ([2]; sennoside 50 mg/kg oral before loperamide (CON1))	Weight of feces ([1]; negative control (LOP): loperamide 4 mg/kg subcutaneously for 5 days, normal control 4.8±0.89)	Number of feces ([1]; negative control (LOP): loperamide 4 mg/kg subcutaneously for 5 days, normal control 47.2±5.8)	Colonic transit of the carmine dye ([2]; negative control (LOP): loperamide 4 mg/kg s.c. 5 days, normal control 13.4±0.94 cm) [cm]
sennoside	more effective in increasing the number of feces than Dulcolax-S	no significant difference in the weight of feces	significantly increased compared to that in the negative control (LOP)	–	–	–
CN(C)C(=O)C(CCN1CCC(O)(c2ccc(Cl)cc2)CC1)(c1ccccc1)c1ccccc1 [loperamide]	–	–	–	2.6±0.32	23.1±3.6	6.6±0.75
